Experimental data reported in PubChem BioAssay AID2060606 (Molecular Pharmacology Branch, DTP, NCI, 2025).

Tested on: 922993-354-T-J3-PDC complex spheroids, viability, % test/control
Experiment: Anticancer human tumor 922993-354-T-J3-PDC patient-derived endometrial carcinoma cell line growth inhibition [CLK]
Details: for IC50: curve of first compound; for viability, T/C: stronger effect = lower value
In short: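 Patient-derived tumor cells grown as complex spheroids with HUVEC endothelial cells and mesenchymal stem cells, treated with drug combinations. Concentrations descend in half-log steps from near clinical Cmax, or from 10 microM if Cmax unknown.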

[1] = second compound 0.0316 µM, first compound 0.00949 µM
[2] = second compound 0.0316 µM, first compound 0.03 µM
[3] = second compound 0.0316 µM, first compound 0.0949 µM
[4] = second compound 0.0316 µM, first compound 0.3 µM
[5] = second compound 0.1 µM, first compound 0.00949 µM
[6] = second compound 0.1 µM, first compound 0.03 µM
[7] = second compound 0.1 µM, first compound 0.0949 µM
[8] = second compound 0.1 µM, first compound 0.3 µM
[9] = second compound 0.316 µM, first compound 0.00949 µM
[10] = second compound 0.316 µM, first compound 0.03 µM
[11] = second compound 0.316 µM, first compound 0.0949 µM
[12] = second compound 0.316 µM, first compound 0.3 µM
[13] = second compound 1 µM, first compound 0.00949 µM
[14] = second compound 1 µM, first compound 0.03 µM
[15] = second compound 1 µM, first compound 0.0949 µM
[16] = second compound 1 µM, first compound 0.3 µM
[17] = second compound 3.16 µM, first compound 0.00949 µM
[18] = second compound 3.16 µM, first compound 0.03 µM
[19] = second compound 3.16 µM, first compound 0.0949 µM
[20] = second compound 3.16 µM, first compound 0.3 µM
[21] = second compound 10 µM, first compound 0.00949 µM
[22] = second compound 10 µM, first compound 0.03 µM
[23] = second compound 10 µM, first compound 0.0949 µM
[24] = second compound 10 µM, first compound 0.3 µM
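Note: spheroids exposed to the agents for 7 days before readout.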

## C=CC(=O)Nc1cc(Nc2nccc(-c3cn(C)c4ccccc34)n2)c(OC)cc1N(C)CCN(C)C + CN1CCN(c2cc(C(=O)Nc3cc4cc(-c5cnn(C)c5)ccc4cn3)ccn2)CC1
Second compound 0.0316 µM
  IC50: > 300 nM
Second compound 0.1 µM
  IC50: > 300 nM
Second compound 0.316 µM
  IC50: < 0.949 nM
Second compound 1 µM
  IC50: < 0.949 nM
Second compound 3.16 µM
  IC50: < 0.949 nM
Second compound 10 µM
  IC50: < 0.949 nM
Second compound 0.0316 µM, first compound 0.000949 µM
  viability, T/C: 98.9%
Second compound 0.0316 µM, first compound 0.003 µM
  viability, T/C: 98.4%
[1]
  viability, T/C: 101%
[2]
  viability, T/C: 108%
[3]
  viability, T/C: 97.4%
[4]
  viability, T/C: 73.1%
Second compound 0.1 µM, first compound 0.000949 µM
  viability, T/C: 96.7%
Second compound 0.1 µM, first compound 0.003 µM
  viability, T/C: 97.7%
[5]
  viability, T/C: 83.7%
[6]
  viability, T/C: 69%
[7]
  viability, T/C: 81%
[8]
  viability, T/C: 63.3%
Second compound 0.316 µM, first compound 0.000949 µM
  viability, T/C: 41.8%
Second compound 0.316 µM, first compound 0.003 µM
  viability, T/C: 45.5%
[9]
  viability, T/C: 44.2%
[10]
  viability, T/C: 22.8%
[11]
  viability, T/C: 31.7%
[12]
  viability, T/C: 27.8%
Second compound 1 µM, first compound 0.000949 µM
  viability, T/C: 0.12%
Second compound 1 µM, first compound 0.003 µM
  viability, T/C: 0.13%
[13]
  viability, T/C: 1.12%
[14]
  viability, T/C: 0.1%
[15]
  viability, T/C: 0.1%
[16]
  viability, T/C: 1.55%
Second compound 3.16 µM, first compound 0.000949 µM
  viability, T/C: 0.11%
Second compound 3.16 µM, first compound 0.003 µM
  viability, T/C: 0.14%
[17]
  viability, T/C: 0.14%
[18]
  viability, T/C: 0.7%
[19]
  viability, T/C: 0.13%
[20]
  viability, T/C: 1.62%
Second compound 10 µM, first compound 0.000949 µM
  viability, T/C: 0.15%
Second compound 10 µM, first compound 0.003 µM
  viability, T/C: 0.17%
[21]
  viability, T/C: 1.16%
[22]
  viability, T/C: 0.16%
[23]
  viability, T/C: 1.05%
[24]
  viability, T/C: 0.62%

## NC(=O)C(=Cn1cnc(-c2cc(C(F)(F)F)cc(C(F)(F)F)c2)n1)c1cncnc1 + CN1CCN(c2cc(C(=O)Nc3cc4cc(-c5cnn(C)c5)ccc4cn3)ccn2)CC1
Second compound 0.0316 µM
  IC50: 229 nM
Second compound 0.1 µM
  IC50: 173 nM
Second compound 0.316 µM
  IC50: < 9.49 nM
Second compound 1 µM
  IC50: < 9.49 nM
Second compound 3.16 µM
  IC50: < 9.49 nM
Second compound 10 µM
  IC50: < 9.49 nM
[1]
  viability, T/C: 119%
[2]
  viability, T/C: 115%
[3]
  viability, T/C: 82.1%
[4]
  viability, T/C: 40.1%
Second compound 0.0316 µM, first compound 0.949 µM
  viability, T/C: 30.6%
Second compound 0.0316 µM, first compound 3 µM
  viability, T/C: 41.2%
[5]
  viability, T/C: 118%
[6]
  viability, T/C: 118%
[7]
  viability, T/C: 80.7%
[8]
  viability, T/C: 21.7%
Second compound 0.1 µM, first compound 0.949 µM
  viability, T/C: 21.5%
Second compound 0.1 µM, first compound 3 µM
  viability, T/C: 20%
[9]
  viability, T/C: 48.8%
[10]
  viability, T/C: 32.3%
[11]
  viability, T/C: 4.78%
[12]
  viability, T/C: 1.32%
Second compound 0.316 µM, first compound 0.949 µM
  viability, T/C: 0.16%
Second compound 0.316 µM, first compound 3 µM
  viability, T/C: 1.43%
[13]
  viability, T/C: 0.11%
[14]
  viability, T/C: 0.75%
[15]
  viability, T/C: 0.12%
[16]
  viability, T/C: 0.07%
Second compound 1 µM, first compound 0.949 µM
  viability, T/C: 0.71%
Second compound 1 µM, first compound 3 µM
  viability, T/C: 2.13%
[17]
  viability, T/C: 0.1%
[18]
  viability, T/C: 0.13%
[19]
  viability, T/C: 0.17%
[20]
  viability, T/C: 1.63%
Second compound 3.16 µM, first compound 0.949 µM
  viability, T/C: 1.45%
Second compound 3.16 µM, first compound 3 µM
  viability, T/C: 2.46%
[21]
  viability, T/C: 0.14%
[22]
  viability, T/C: 0.16%
[23]
  viability, T/C: 1.88%
[24]
  viability, T/C: 0.19%
Second compound 10 µM, first compound 0.949 µM
  viability, T/C: 0.8%
Second compound 10 µM, first compound 3 µM
  viability, T/C: 2.01%

## Nc1ccccc1NC(=O)c1ccc(CNC(=O)OCc2cccnc2)cc1 + CN1CCN(c2cc(C(=O)Nc3cc4cc(-c5cnn(C)c5)ccc4cn3)ccn2)CC1
Second compound 0.0316 µM
  IC50: > 10000 nM
Second compound 0.1 µM
  IC50: 4690 nM
Second compound 0.316 µM
  IC50: < 31.6 nM
Second compound 1 µM
  IC50: < 31.6 nM
Second compound 3.16 µM
  IC50: < 31.6 nM
Second compound 10 µM
  IC50: < 31.6 nM
Second compound 0.0316 µM, first compound 0.0316 µM
  viability, T/C: 111%
Second compound 0.0316 µM, first compound 0.1 µM
  viability, T/C: 114%
Second compound 0.0316 µM, first compound 0.316 µM
  viability, T/C: 103%
Second compound 0.0316 µM, first compound 1 µM
  viability, T/C: 90.3%
Second compound 0.0316 µM, first compound 3.16 µM
  viability, T/C: 62%
Second compound 0.0316 µM, first compound 10 µM
  viability, T/C: 51.9%
Second compound 0.1 µM, first compound 0.0316 µM
  viability, T/C: 103%
Second compound 0.1 µM, first compound 0.1 µM
  viability, T/C: 97.2%
Second compound 0.1 µM, first compound 0.316 µM
  viability, T/C: 83.8%
Second compound 0.1 µM, first compound 1 µM
  viability, T/C: 60.1%
Second compound 0.1 µM, first compound 3.16 µM
  viability, T/C: 59.6%
Second compound 0.1 µM, first compound 10 µM
  viability, T/C: 41.7%
Second compound 0.316 µM, first compound 0.0316 µM
  viability, T/C: 39.8%
Second compound 0.316 µM, first compound 0.1 µM
  viability, T/C: 29.3%
Second compound 0.316 µM, first compound 0.316 µM
  viability, T/C: 31.7%
Second compound 0.316 µM, first compound 1 µM
  viability, T/C: 33%
Second compound 0.316 µM, first compound 3.16 µM
  viability, T/C: 6.16%
Second compound 0.316 µM, first compound 10 µM
  viability, T/C: 1.51%
Second compound 1 µM, first compound 0.0316 µM
  viability, T/C: 0.15%
Second compound 1 µM, first compound 0.1 µM
  viability, T/C: 1.32%
Second compound 1 µM, first compound 0.316 µM
  viability, T/C: 0.79%
Second compound 1 µM, first compound 1 µM
  viability, T/C: 0.09%
Second compound 1 µM, first compound 3.16 µM
  viability, T/C: 0.26%
Second compound 1 µM, first compound 10 µM
  viability, T/C: 1.83%
Second compound 3.16 µM, first compound 0.0316 µM
  viability, T/C: 0.61%
Second compound 3.16 µM, first compound 0.1 µM
  viability, T/C: 0.12%
Second compound 3.16 µM, first compound 0.316 µM
  viability, T/C: 1.29%
Second compound 3.16 µM, first compound 1 µM
  viability, T/C: 0.65%
Second compound 3.16 µM, first compound 3.16 µM
  viability, T/C: 1.19%
Second compound 3.16 µM, first compound 10 µM
  viability, T/C: 1.23%
Second compound 10 µM, first compound 0.0316 µM
  viability, T/C: 0.11%
Second compound 10 µM, first compound 0.1 µM
  viability, T/C: 0.14%
Second compound 10 µM, first compound 0.316 µM
  viability, T/C: 2.33%
Second compound 10 µM, first compound 1 µM
  viability, T/C: 0.14%
Second compound 10 µM, first compound 3.16 µM
  viability, T/C: 2.41%
Second compound 10 µM, first compound 10 µM
  viability, T/C: 2.96%
